IC50 data for two compounds are collected here from patent US9346829B2, “5-HT3 receptor antagonists” (Takeda Phamaceutical Company Limited, priority 2012, dated 2016).

The target of one assay is nicotinic α-7 receptor (Homo sapiens (Human), UniProt P36544). The experiment in a line: Nicotinic α-7 receptor binding assay. As to conditions: binding at the nicotinic α-7 receptor, carried out at Eurofins Pharma Services. On the procedure: The evaluation of binding at the nicotinic α-7 receptor was carried out at Eurofins Pharma Services.
nicotinic α-7 receptor, sequence (P36544 23-502): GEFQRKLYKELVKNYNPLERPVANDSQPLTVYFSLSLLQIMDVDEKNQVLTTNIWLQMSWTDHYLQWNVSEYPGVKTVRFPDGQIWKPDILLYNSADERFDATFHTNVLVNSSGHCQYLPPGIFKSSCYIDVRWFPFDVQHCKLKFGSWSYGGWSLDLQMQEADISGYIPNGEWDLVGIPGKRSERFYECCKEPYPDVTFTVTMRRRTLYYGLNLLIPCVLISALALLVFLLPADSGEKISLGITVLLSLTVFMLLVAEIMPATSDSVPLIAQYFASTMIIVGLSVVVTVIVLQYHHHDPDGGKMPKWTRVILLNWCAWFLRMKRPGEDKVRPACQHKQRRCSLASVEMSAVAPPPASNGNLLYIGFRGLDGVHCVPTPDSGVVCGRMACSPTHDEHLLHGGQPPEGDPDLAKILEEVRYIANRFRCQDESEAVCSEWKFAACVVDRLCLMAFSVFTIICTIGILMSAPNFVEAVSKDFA
The next assay deals with 5-HT3a receptor (Homo sapiens (Human), UniProt P46098). The experiment in a line: Inhibition of Ca flux activity of 5-HT3 in vitro assay. The class given is cell-based. On the procedure:
The 5-HT3 antagonist activity of the compounds of the invention was determined by measuring the ability of the compounds to inhibit the calcium flux activity of […] receptor expressed in HEK-293T cells. HEK-293T cells were transfected with the 5-HT3a expression construct using Xtreme Gene 9 (Roche) in 150 mm tissue culture treated plates and incubated for 24 hours at 37° C. Cells were then split and plated at a density of 60K cells/well in poly-lysine coated, black 96-well plates with clear bottoms (BD BioSciences) and incubated overnight at 37° C. Growth media was removed and cells loaded with 200 uL calcium indicator dye in HBSS containing 20 mM HEPES (Calcium 5 Assay kit, Molecular Devices) and incubated at 37° C. for 1 hour. While cells were incubating, the 10× antagonist and agonist/antagonist addition plates were made. For 10× antagonist plate: half log serial dilutions (final concentrations range from 10^−7 through 10^−10 with the bottom well a negative, no ligand control) were made from test compounds in DMSO at a 1000× concentration and then diluted to 10× in HBSS/20 mM HEPES. For addition plate: 5HT was diluted to 100× in HBSS/20 mM HEPES (final concentration in the assay—216 nM) and 15 uL was added to each well of the addition plate, 15 uL of 10× compound was also added to the addition plate, and finally 120 uL of HBSS/20 mM HEPES (for a total of 150 uL). Cells were then removed from the incubator and equilibrated to room temperature for 10 minutes, then 22.5 uL of 10× test compounds were added in triplicate to the plates and incubated at room temperature for 10 minutes (Tropisetron was used as a positive control in every assay). Test plate and addition plate were loaded into the FlexStation III (Molecular Devices), and using the fluidics, 22.5 uL compound additions were made (at t=˜17 seconds), and fluorescence was measured for 90 seconds, reading every 2.2 seconds. Data sets were analyzed as max minus min using Software Max Pro (Molecular Devices). IC50 curves were generated using non-linear regression in GraphPad Prism.

Where a name gives a salt, the structure may show the parent alone. Read-outs that look alike come from different tables or passages of the source.

5-HT3a receptor, sequence (P46098 24-478): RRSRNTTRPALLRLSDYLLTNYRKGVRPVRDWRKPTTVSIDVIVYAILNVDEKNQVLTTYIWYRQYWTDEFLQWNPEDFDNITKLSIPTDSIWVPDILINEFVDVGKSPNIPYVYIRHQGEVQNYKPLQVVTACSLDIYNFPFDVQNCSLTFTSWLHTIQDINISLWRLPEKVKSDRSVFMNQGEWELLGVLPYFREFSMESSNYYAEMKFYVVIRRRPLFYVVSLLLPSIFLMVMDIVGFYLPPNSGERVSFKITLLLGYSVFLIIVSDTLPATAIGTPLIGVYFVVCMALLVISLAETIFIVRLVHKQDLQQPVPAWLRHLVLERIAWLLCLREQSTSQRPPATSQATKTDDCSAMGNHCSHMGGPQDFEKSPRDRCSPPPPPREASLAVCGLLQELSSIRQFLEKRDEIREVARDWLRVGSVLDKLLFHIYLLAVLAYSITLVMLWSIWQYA

Regarding `CN1C2COCC1CC(OC(=O)c1c[nH]c3ccccc13)C2` [Reference 7, (1R,5S,7S)-9-methyl-3-oxa-9-azabicyclo[3.3.1]nonan-7-yl 1H-indole-3-carboxylate, reference compound], the half-maximal inhibitory concentration (IC50) – broadly, the midpoint of a concentration-inhibition curve – at nicotinic α-7 receptor came to 1.66 µM; against 5-HT3a receptor, 0.0891 µM.
Regarding `CN1[C@@H]2COC[C@H]1C[C@@H](NC(=O)c1cn(-c3cnn(C)c3)c3ccccc13)C2` [Compound 15, 1-(1-methyl-1H-pyrazol-4-yl)-N-((1R,5S,7S)-9-methyl-3-oxa-9-azabicyclo[3.3.1]nonan-7-yl)-1H-indole-3-carboxamide, 2,2,2-trifluoroacetic acid salt], the IC50 at nicotinic α-7 receptor was greater than 10 µM; against 5-HT3a receptor it was 0.00348 µM; at 5-HT3a receptor (approximate IC50, calcium flux, 5-HT3a expressed in HEK-293T cells, 5HT 216 nM, read-out: IC50), 0.000662 µM.
